BindingDB's records for PubMed 2971798 (University of Pennsylvania, 1988)

Legend:
[1] = molecular target: D(2) dopamine receptor (Canis lupus familiaris, UniProt Q9GJU1)
[2] = molecular target: T1, 5-hydroxytryptamine receptor 2C (Canis lupus familiaris, UniProt Q60F97)
T1 sequence (Q60F97 whole entry): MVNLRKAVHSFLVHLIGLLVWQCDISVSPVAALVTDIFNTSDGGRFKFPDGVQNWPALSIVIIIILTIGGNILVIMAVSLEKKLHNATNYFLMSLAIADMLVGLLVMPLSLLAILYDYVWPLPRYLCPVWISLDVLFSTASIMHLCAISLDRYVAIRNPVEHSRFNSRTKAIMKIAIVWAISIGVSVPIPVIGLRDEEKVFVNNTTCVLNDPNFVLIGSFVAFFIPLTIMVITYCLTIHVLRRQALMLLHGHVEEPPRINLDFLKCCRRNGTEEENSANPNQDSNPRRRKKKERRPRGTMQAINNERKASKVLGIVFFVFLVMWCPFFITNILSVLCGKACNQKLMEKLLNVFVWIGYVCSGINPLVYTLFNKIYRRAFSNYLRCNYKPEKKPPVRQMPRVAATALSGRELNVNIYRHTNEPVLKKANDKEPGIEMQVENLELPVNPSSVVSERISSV

D(2) dopamine receptor, sequence (Q9GJU1 whole entry): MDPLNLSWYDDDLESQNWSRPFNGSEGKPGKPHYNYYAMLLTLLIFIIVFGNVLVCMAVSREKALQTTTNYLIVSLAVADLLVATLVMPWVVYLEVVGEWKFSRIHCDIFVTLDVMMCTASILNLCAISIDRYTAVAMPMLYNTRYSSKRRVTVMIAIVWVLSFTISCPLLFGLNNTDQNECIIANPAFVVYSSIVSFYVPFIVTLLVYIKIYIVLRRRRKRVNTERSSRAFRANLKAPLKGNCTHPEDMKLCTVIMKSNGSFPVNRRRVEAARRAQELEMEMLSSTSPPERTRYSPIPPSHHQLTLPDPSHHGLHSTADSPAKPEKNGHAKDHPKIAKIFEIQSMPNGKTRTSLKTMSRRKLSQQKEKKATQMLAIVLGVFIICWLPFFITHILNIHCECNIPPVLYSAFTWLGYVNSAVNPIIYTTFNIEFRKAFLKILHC

Ki [1] | Ki [2] | SMILES
> 10000 nM |  | NCCc1ccc(O)c(O)c1
166 nM | 13 nM | O=C(c1ccc(F)cc1)C1CCN(CCn2c(=O)[nH]c3ccccc3c2=O)CC1 [3-(2-{4-[(4-fluorophenyl)carbonyl]piperidin-1-yl}ethyl)-1,2,3,4-tetrahydroquinazoline-2,4-dione]
30 nM |  | OCCN1CCN(CC/C=C2/c3ccccc3Sc3ccc(C(F)(F)F)cc32)CC1 [(cis) 2-{4-[3-(2-Trifluoromethyl-thioxanthen-9-ylidene)-propyl]-piperazin-1-yl}-ethanol(Flupentixol)]
161 nM | 2.8 nM | CN1CCN2c3ccccc3Cc3ccccc3[C@H]2C1 [MIANSERIN (+)]

SMILES | Ki [1] | Ki [2]
NCCc1c[nH]c2ccc(O)cc12 [[3H]-5-HT] | > 10000 nM | 
